Results taken from US20250313535A1, “ALPHA 4 BETA 7 INTEGRIN MODULATORS AND USES THEREOF” (DICE MOLECULES SV, INC., priority 2022, published 2025).

Tests used:
α4β7 integrin = α4β7 integrin (Homo sapiens (Human), UniProt P13612+P26010); experiment: Integrin Adhesion Assay: Protocol 4 (MAdCAM-coated plate, RPMI-8866 cells with stable LOF mutation of the ITGB1 gene); format: cell-based; settings: Protocol 4; RPMI-8866 cells with LOF mutation of ITGB1, MAdCAM; read-out: Mean IC50 α4β7 KO
Procedure, shortened: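 RPMI-8866 cells with CRISPR/Cas9 knockout of ITGB1 (2×10^6/mL) were added to MAdCAM-coated wells with compound (1% DMSO) in HEPES/NaCl buffer with 1 mM MnCl2, 0.1 mM CaCl2 and 1% BSA, then incubated 1 h at 37 °C. After four washes, adherent cells were quantified by CellTiter-Glo luminescence. Percent inhibition versus DMSO and control compound was fitted to 4-parameter curves.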

α4β1 integrin = α4β1 integrin (Homo sapiens (Human), UniProt P05556+P13612); experiment: Integrin Adhesion Assay: Protocol 5 (VCAM-coated plate, RPMI-8866 cells with stable LOF mutation of the ITGB7 gene); format: cell-based; settings: Protocol 5; RPMI-8866 cells with LOF mutation of ITGB7, VCAM; read-out: Mean IC50 α4β1 KO
Procedure, shortened: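 RPMI-8866 B cells with CRISPR/Cas9 ITGB7 knockout (clonal, verified by flow cytometry) adhered to VCAM-coated wells for 1 h at 37° C in HEPES/NaCl buffer with 1 mM MnCl2, 0.1 mM CaCl2, 1% BSA, 1% DMSO. Bound cells quantified by CellTiter-Glo luminescence after washing; % inhibition versus DMSO and control, 4-parameter fit.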

Sequence of α4β1 integrin (P13612 34-1032): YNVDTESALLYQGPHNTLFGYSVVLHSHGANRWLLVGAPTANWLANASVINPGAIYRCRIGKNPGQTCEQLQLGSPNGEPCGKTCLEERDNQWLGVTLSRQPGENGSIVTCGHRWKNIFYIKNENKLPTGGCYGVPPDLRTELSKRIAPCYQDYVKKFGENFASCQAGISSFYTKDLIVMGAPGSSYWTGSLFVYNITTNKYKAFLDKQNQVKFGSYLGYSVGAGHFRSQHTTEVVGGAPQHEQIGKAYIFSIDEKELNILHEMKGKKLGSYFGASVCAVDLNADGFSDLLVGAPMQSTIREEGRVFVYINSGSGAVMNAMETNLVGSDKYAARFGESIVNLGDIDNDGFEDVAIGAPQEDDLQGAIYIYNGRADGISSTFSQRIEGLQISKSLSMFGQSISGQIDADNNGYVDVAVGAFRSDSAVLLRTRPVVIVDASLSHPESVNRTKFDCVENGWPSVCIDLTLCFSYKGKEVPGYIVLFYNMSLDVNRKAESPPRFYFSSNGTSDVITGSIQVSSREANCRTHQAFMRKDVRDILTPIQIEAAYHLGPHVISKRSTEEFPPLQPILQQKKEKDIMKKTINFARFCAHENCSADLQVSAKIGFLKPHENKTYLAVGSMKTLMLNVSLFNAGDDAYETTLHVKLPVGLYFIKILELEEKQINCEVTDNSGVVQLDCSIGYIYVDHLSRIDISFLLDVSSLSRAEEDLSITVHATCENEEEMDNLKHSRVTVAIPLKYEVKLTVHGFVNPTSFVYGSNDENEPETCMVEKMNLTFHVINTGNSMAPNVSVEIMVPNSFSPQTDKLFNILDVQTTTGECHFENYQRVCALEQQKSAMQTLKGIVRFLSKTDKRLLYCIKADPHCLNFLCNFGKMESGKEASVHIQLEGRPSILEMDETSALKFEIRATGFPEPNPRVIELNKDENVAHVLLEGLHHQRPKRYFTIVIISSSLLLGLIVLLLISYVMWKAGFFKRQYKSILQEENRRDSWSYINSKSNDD
Sequence of α4β1 integrin (P05556 21-798): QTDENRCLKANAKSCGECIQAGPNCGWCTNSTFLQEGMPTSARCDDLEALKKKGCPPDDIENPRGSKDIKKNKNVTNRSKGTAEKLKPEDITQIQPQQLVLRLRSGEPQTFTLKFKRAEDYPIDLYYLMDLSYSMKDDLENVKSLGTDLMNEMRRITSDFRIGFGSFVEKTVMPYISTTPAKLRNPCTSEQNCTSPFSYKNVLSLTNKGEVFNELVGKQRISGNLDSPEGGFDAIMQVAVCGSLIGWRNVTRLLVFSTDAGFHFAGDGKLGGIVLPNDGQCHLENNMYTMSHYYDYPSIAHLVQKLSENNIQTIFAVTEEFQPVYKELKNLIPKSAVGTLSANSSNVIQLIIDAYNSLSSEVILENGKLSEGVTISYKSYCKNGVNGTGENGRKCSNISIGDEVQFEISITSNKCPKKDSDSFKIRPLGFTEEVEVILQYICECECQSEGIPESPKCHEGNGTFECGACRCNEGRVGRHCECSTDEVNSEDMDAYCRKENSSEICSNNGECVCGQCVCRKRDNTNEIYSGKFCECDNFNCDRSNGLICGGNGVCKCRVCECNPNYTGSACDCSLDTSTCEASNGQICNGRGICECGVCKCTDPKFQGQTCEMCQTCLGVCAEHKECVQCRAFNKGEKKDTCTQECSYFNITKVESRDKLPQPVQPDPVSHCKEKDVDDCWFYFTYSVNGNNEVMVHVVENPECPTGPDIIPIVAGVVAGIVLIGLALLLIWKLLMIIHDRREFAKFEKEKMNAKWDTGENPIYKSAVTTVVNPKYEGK
Sequence of α4β7 integrin (P13612 34-1032): as the sequence (P13612 34-1032) above
Sequence of α4β7 integrin (P26010 20-798): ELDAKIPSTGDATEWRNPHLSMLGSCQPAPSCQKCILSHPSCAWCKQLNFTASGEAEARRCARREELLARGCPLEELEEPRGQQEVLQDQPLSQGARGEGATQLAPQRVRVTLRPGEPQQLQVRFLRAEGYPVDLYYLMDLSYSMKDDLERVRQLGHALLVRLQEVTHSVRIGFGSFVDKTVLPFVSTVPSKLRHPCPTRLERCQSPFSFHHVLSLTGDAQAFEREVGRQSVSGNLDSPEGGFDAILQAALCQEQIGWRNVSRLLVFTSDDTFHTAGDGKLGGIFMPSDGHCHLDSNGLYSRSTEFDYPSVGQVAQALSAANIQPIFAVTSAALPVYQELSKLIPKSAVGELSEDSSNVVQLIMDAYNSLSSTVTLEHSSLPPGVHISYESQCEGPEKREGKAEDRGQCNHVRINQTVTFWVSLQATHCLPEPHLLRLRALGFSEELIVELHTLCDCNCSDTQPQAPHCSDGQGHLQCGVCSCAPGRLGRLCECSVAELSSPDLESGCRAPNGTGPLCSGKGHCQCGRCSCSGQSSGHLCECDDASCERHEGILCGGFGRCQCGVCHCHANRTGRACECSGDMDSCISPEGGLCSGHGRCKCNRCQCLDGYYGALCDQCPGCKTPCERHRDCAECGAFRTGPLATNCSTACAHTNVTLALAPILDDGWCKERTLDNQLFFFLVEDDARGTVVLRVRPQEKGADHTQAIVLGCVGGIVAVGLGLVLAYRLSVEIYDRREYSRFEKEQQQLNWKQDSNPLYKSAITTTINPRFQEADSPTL

Row | Compound | IC50 (α4β7 integrin) [nM] | IC50 (α4β1 integrin) [nM]
1 | COc1c(CN2CCCCC2)cc2cccnc2c1-c1cccc2c(C[C@H](NC(=O)C3(C(F)(F)F)CCN(CC(F)(F)F)CC3)C(=O)O)cccc12 [Compound 792] | 10 to 100 | > 1000
2 | O=C(O)[C@H](Cc1cccc2c(-c3ncccc3CN3CCCCC3)cccc12)NC(=O)C1(C(F)(F)F)CCN(CC(F)(F)F)CC1 [Compound 793] | 10 to 100 | > 1000
3 | COc1cc(CN2CCCCC2)cc(OC)c1-c1cccc2c(C[C@H](NC(=O)C3(C(F)(F)F)CCN(CC(F)(F)F)CC3)C(=O)O)cccc12 [Compound 794] | < 10 | 100 to 1000
4 | COc1cc(CN2CCC(F)(F)CC2)cc(OC)c1-c1cccc2c(C[C@H](NC(=O)C3(C(F)(F)F)CCN(CC(F)(F)F)CC3)C(=O)O)cccc12 [Compound 795] | < 10 | 100 to 1000
5 | COc1cc(CN2CCCC2)cc(OC)c1-c1cccc2c(C[C@H](NC(=O)C3(C(F)(F)F)CCN(CC(F)(F)F)CC3)C(=O)O)cccc12 [Compound 796] | < 10 | 100 to 1000
6 | COc1cc(CN2CCC(F)(F)C2)cc(OC)c1-c1cccc2c(C[C@H](NC(=O)C3(C(F)(F)F)CCN(CC(F)(F)F)CC3)C(=O)O)cccc12 [Compound 797] | < 10 | > 1000
7 | COc1ccc(CN2CCCCC2)nc1-c1cccc2c(C[C@H](NC(=O)C3(C(F)(F)F)CCN(CC(F)(F)F)CC3)C(=O)O)cccc12 [Compound 798] | < 10 | > 1000
8 | COc1c(CN2CCCCC2)ccc(Cl)c1-c1cccc2c(C[C@H](NC(=O)C3(C(F)(F)F)CCN(CC(F)(F)F)CC3)C(=O)O)cccc12 [Compound 799] | < 10 | > 1000
9 | COc1cc(CN2CCCCC2)cnc1-c1cccc2c(C[C@H](NC(=O)C3(C(F)(F)F)CCN(CC(F)(F)F)CC3)C(=O)O)cccc12 [Compound 800] | < 10 | > 1000
10 | O=C(O)[C@H](Cc1cccc2c(-c3c(CN4CCCCC4)ccc4ccncc34)cccc12)NC(=O)C1(C(F)(F)F)CCN(CC(F)(F)F)CC1 [Compound 802] | < 10 | > 1000
11 | O=C(O)[C@H](Cc1cccc2c(-c3cccc4c(CN5CCCCC5)cncc34)cccc12)NC(=O)C1(C(F)(F)F)CCN(CC(F)(F)F)CC1 [Compound 803] | 10 to 100 | > 1000
12 | COc1cc(CN2CCCCC2)cc(Cl)c1-c1cccc2c(C[C@H](NC(=O)C3(C(F)(F)F)CCN(CC(F)(F)F)CC3)C(=O)O)cccc12 [Compound 804] | < 10 | 100 to 1000
13 | COc1ccc(CN2CCCC3(CCN(Cc4ccccc4)CC3)C2)c(OC)c1-c1cccc2c(C[C@H](NC(=O)C3(C(F)(F)F)CCN(CC(F)(F)F)CC3)C(=O)O)cccc12 [Compound 809] | < 10 | 100 to 1000
14 | COc1ccc(CN2CCC(C)(C)CC2)c(C(F)(F)F)c1-c1cccc2c(C[C@H](NC(=O)C3(C(F)(F)F)CCN(CC(F)(F)F)CC3)C(=O)O)cccc12 [Compound 819] | < 10 | 100 to 1000
15 | COc1ccc(CN2CCCC(F)C2)c(C(F)(F)F)c1-c1cccc2c(C[C@H](NC(=O)C3(C(F)(F)F)CCN(CC(F)(F)F)CC3)C(=O)O)cccc12 (some centres unmarked) [Compound 820] | 10 to 100 | > 1000
16 | COc1ccc(CN2CCC(F)CC2)c(C(F)(F)F)c1-c1cccc2c(C[C@H](NC(=O)C3(C(F)(F)F)CCN(CC(F)(F)F)CC3)C(=O)O)cccc12 [Compound 821] | 10 to 100 | > 1000
17 | COc1ccc(CN2CCC(F)(F)CC2)c(C(F)(F)F)c1-c1cccc2c(C[C@H](NC(=O)C3(C(F)(F)F)CCN(CC(F)(F)F)CC3)C(=O)O)cccc12 [Compound 822] | 100 to 1000 | > 1000
18 | COc1ccc(CN2CCC(F)(F)CC2)c(C(F)(F)F)c1-c1cccc2c(C[C@H](NC(=O)c3c(C)cccc3F)C(=O)O)cccc12 [Compound 823] | 100 to 1000 | > 1000
19 | COc1cc(CN2CCCCC2)cc(C(F)(F)F)c1-c1cccc2c(C[C@H](NC(=O)C3(C(F)(F)F)CCN(CC(F)(F)F)CC3)C(=O)O)cccc12 [Compound 824] | < 10 | > 1000
20 | COc1cccc(CN2CCCC(F)C2)c1-c1cccc2c(C[C@H](NC(=O)C3(C(F)(F)F)CCN(CC(F)(F)F)CC3)C(=O)O)cccc12 (some centres unmarked) [Compound 828] | 10 to 100 | > 1000
21 | COc1cccc(CN2CCC(C)(C)CC2)c1-c1cccc2c(C[C@H](NC(=O)C3(C(F)(F)F)CCN(CC(F)(F)F)CC3)C(=O)O)cccc12 [Compound 829] | 10 to 100 | > 1000
22 | COc1cc(C(F)(F)F)cc(CN2CCCCC2)c1-c1cccc2c(C[C@H](NC(=O)C3(C(F)(F)F)CCN(CC(F)(F)F)CC3)C(=O)O)cccc12 [Compound 830] | 10 to 100 | > 1000
23 | COc1cc(CN2CCCCC2)ccc1-c1cccc2c(C[C@H](NC(=O)C3(C(F)(F)F)CCN(CC(F)(F)F)CC3)C(=O)O)cccc12 [Compound 831] | < 10 | > 1000
24 | COc1cc(C(F)(F)F)c(CN2CCCCC2)cc1-c1cccc2c(C[C@H](NC(=O)C3(C(F)(F)F)CCN(CC(F)(F)F)CC3)C(=O)O)cccc12 [Compound 832] | 10 to 100 | > 1000
25 | Cn1c(=O)c(-c2cccc3c(C[C@H](NC(=O)C4(C(F)(F)F)CCN(CC(F)(F)F)CC4)C(=O)O)cccc23)c(C(F)(F)F)c2cc(CN3CCC(F)CC3)ccc21 [Compound 833] | < 10 | 100 to 1000

The next lines start with the values.

Row | IC50 (α4β7 integrin) [nM] | IC50 (α4β1 integrin) [nM] | Compound
26 | < 10 | 100 to 1000 | COc1ccc(CN2CCC(C)(C)CC2)c(OC)c1-c1cccc2c(C[C@H](NC(=O)C3(C(F)(F)F)CCN(CC(F)(F)F)CC3)C(=O)O)cccc12 [Compound 789]
27 | < 10 | 100 to 1000 | COc1ccc(CN2CCCC(C)C2)c(OC)c1-c1cccc2c(C[C@H](NC(=O)C3(C(F)(F)F)CCN(CC(F)(F)F)CC3)C(=O)O)cccc12 (some centres unmarked) [Compound 790]
28 | < 10 | > 1000 | COc1ccc(CN2CCCC(C)(C)C2)c(OC)c1-c1cccc2c(C[C@H](NC(=O)C3(C(F)(F)F)CCN(CC(F)(F)F)CC3)C(=O)O)cccc12 [Compound 791]
29 | < 10 | 100 to 1000 | COc1ccc(CN2CCN(CC(C)C)CC2)c(OC)c1-c1cccc2c(C[C@H](NC(=O)C3(C(F)(F)F)CCN(CC(F)(F)F)CC3)C(=O)O)cccc12 [Compound 805]
30 | 10 to 100 | > 1000 | COc1ccc(CN2CCN(Cc3ccc(C(F)(F)F)cc3)CC2)c(OC)c1-c1cccc2c(C[C@H](NC(=O)C3(C(F)(F)F)CCN(CC(F)(F)F)CC3)C(=O)O)cccc12 [Compound 806]
31 | < 10 | > 1000 | COc1ccc(CN2CCC(c3ccccc3)CC2)c(OC)c1-c1cccc2c(C[C@H](NC(=O)C3(C(F)(F)F)CCN(CC(F)(F)F)CC3)C(=O)O)cccc12 [Compound 807]
32 | < 10 | 100 to 1000 | COc1ccc(CN2CCC(c3ccncc3)CC2)c(OC)c1-c1cccc2c(C[C@H](NC(=O)C3(C(F)(F)F)CCN(CC(F)(F)F)CC3)C(=O)O)cccc12 [Compound 808]
33 | < 10 | 100 to 1000 | COc1ccc(CN2CCN(C)C(C)(C)C2)c(OC)c1-c1cccc2c(C[C@H](NC(=O)C3(C(F)(F)F)CCN(CC(F)(F)F)CC3)C(=O)O)cccc12 [Compound 810]
34 | < 10 | > 1000 | COc1ccc(CN2CC3CCCCC3C2)c(OC)c1-c1cccc2c(C[C@H](NC(=O)C3(C(F)(F)F)CCN(CC(F)(F)F)CC3)C(=O)O)cccc12 (some centres unmarked) [Compound 811]
35 | 10 to 100 | > 1000 | COc1ccc(CN2CCCC(C)(C)CC2)c(OC)c1-c1cccc2c(C[C@H](NC(=O)C3(C(F)(F)F)CCN(CC(F)(F)F)CC3)C(=O)O)cccc12 [Compound 812]
36 | < 10 | > 1000 | COc1ccc(CN2CCC3(CCCCC3)CC2)c(OC)c1-c1cccc2c(C[C@H](NC(=O)C3(C(F)(F)F)CCN(CC(F)(F)F)CC3)C(=O)O)cccc12 [Compound 813]
37 | 10 to 100 | > 1000 | COc1ccc(CN2CC(C(F)(F)F)C2)c(OC)c1-c1cccc2c(C[C@H](NC(=O)C3(C(F)(F)F)CCN(CC(F)(F)F)CC3)C(=O)O)cccc12 [Compound 814]
38 | 10 to 100 | > 1000 | COc1ccc(CN2CC(c3ccccc3)C2)c(OC)c1-c1cccc2c(C[C@H](NC(=O)C3(C(F)(F)F)CCN(CC(F)(F)F)CC3)C(=O)O)cccc12 [Compound 815]
39 | < 10 | 100 to 1000 | COc1ccc(CN2CCN(C3CCC3)CC2)c(OC)c1-c1cccc2c(C[C@H](NC(=O)C3(C(F)(F)F)CCN(CC(F)(F)F)CC3)C(=O)O)cccc12 [Compound 816]
40 | < 10 | 100 to 1000 | COc1ccc(CN2CC3C(C2)C3(C)C)c(OC)c1-c1cccc2c(C[C@H](NC(=O)C3(C(F)(F)F)CCN(CC(F)(F)F)CC3)C(=O)O)cccc12 (some centres unmarked) [Compound 817]
41 | < 10 | > 1000 | COc1ccc(CN2CCC(C(C)(C)C)CC2)c(OC)c1-c1cccc2c(C[C@H](NC(=O)C3(C(F)(F)F)CCN(CC(F)(F)F)CC3)C(=O)O)cccc12 [Compound 818]
42 | 10 to 100 | > 1000 | COc1ccc(CN2CCCC(F)(F)C2)c(OC)c1-c1cccc2c(C[C@H](NC(=O)C3(C(F)(F)F)CCN(CC(F)(F)F)CC3)C(=O)O)cccc12 [Compound 825]
43 | 10 to 100 | > 1000 | COc1cccc(CN2CCC(F)CC2)c1-c1cccc2c(C[C@H](NC(=O)C3(C(F)(F)F)CCN(CC(F)(F)F)CC3)C(=O)O)cccc12 [Compound 827]
